Measured values: patent US20090176755A1, “PHARMACEUTICAL COMPOSITIONS COMPRISING AN ANTIBIOTIC” (priority 2005, published 2009)

Experiment: Exposure of form B crystals to high relative humidity or water (polymorphic transformation)
Assay type: physicochemical
Description: Usually minutes of exposure to high humidity and seconds of exposure to water, such as within an suspension, are sufficient for this transformation. Such conditions are for example found during pharmaceutical production in countries with a humid climate.

exposure time sufficient for transformation into a different polymorphic form (exposure to high humidity): minutes
exposure time sufficient for transformation into a different polymorphic form (exposure to water, such as within a suspension): seconds
relative humidity at which form B transforms into a different polymorphic form with reduced stability (form B crystals exposed to humid conditions): higher than 65%
SMILES: C=CC1=C(C(=O)O)N2C(=O)C(NC(=O)C(=NO)c3csc(N)n3)[C@H]2SC1 (stereo partly drawn) [crystalline form B of cefdinir, 7-[2-(2-aminothiazol-4-yl)-2-hydroxyiminoacetamido]-3-vinyl-3-cephem-4-carboxylic acid]
